Our source for the EC50 and Emax values is patent US10457703B2, “Bile acid derivatives as FXR/TGR5 agonists and methods of use thereof” (ENANTA PHARMACEUTICALS, INC., priority 2015, dated 2019).

In general, EC50 refers to the midpoint of the concentration-response curve. Higher therefore signals weaker potency.

In the assay the target is human FXR (NR1H4) (Homo sapiens (Human), UniProt Q96RI1). In words: Human FXR (NR1H4) Assay (Gal4 promoter driven luciferase reporter, Indigo Bioscience kit).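 For Efficacy (%): 100% equals the efficacy of CDCA; efficacy normalized to CDCA set as 100%.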 It counts as cell-based. To be noted: for EC50: Human FXR (NR1H4) Assay, potency ranges; for Emax: read-out: Efficacy (%). The text has this:
ASSAYS Human FXR (NR1H4) Assay
Determination of a ligand mediated Gal4 promoter driven transactivation to quantify ligand binding mediated activation of FXR. FXR Reporter Assay kit purchased from Indigo Bioscience (Catalogue number: IB00601) to determine the potency and efficacy of compound developed by Enanta that can induce FXR activation. The principle application of this reporter assay system is to quantify functional activity of human FXR. The assay utilizes non-human mammalian cells, CHO (Chinese hamster ovary) cells engineered to express human NR1H4 protein (referred to as FXR). Reporter cells also incorporate the cDNA encoding beetle luciferase which catalyzes the substrates and yields photon emission. Luminescence intensity of the reaction is quantified using a plate-reading luminometer, Envision. Reporter Cells include the luciferase reporter gene functionally linked to an FXR responsive promoter. Thus, quantifying changes in luciferase expression in the treated reporter cells provides a sensitive surrogate measure of the changes in FXR activity. […] The assay is according to the manufacturer's instructions. In brief, the assay was performed in white, 96 well plates using final volume of 100 uL containing cells with different doses of compounds. Retrieve Reporter Cells from −80° C. storage. Perform a rapid thaw of the frozen cells by transferring a 10 ml volume of 37° C. cell recovery medium into the tube of frozen cells. Recap the tube of Reporter Cells and immediately place it in a 37° C. water bath for 5-10 minutes. Retrieve the tube of Reporter Cell Suspension from the water bath. Sanitize the outside surface of the tube with a 70% alcohol swab, and then transfer it into the cell culture hood. Dispense 90 μl of cell suspension into each well of the 96-well Assay Plate. Transfer the plate into 37° C. incubator, allowing the cells adherent to the bottom of the well. Dilute compounds in Dilution Plate (DP), and administrate to cells at Assay Plate (AP). DMSO content of the samples was kept at 0.2%. Cells were incubated for additional 22 hours before luciferase activities were measured. Thirty minutes before intending to quantify FXR activity, remove Detection Substrate and Detection Buffer from the refrigerator and place them in a low-light area so that they may equilibrate to room temperature. Remove the plate's lid and discard all media contents by ejecting it into an appropriate waste container. Gently tap the inverted plate onto a clean absorbent paper towel to remove residual droplets. Cells will remain tightly adhered to well bottoms. Add 100 μl of luciferase detection reagent to each well of the assay plate. Allow the assay plate to rest at room temperature for at least 5 minutes following the addition of LDR. Set the instrument (Envision) to perform a single 5 second “plate shake” prior to reading the first assay well. Read time may be 0.5 second (500 mSec) per well.

human FXR (NR1H4), sequence (Q96RI1 whole entry, the tested form may be a part): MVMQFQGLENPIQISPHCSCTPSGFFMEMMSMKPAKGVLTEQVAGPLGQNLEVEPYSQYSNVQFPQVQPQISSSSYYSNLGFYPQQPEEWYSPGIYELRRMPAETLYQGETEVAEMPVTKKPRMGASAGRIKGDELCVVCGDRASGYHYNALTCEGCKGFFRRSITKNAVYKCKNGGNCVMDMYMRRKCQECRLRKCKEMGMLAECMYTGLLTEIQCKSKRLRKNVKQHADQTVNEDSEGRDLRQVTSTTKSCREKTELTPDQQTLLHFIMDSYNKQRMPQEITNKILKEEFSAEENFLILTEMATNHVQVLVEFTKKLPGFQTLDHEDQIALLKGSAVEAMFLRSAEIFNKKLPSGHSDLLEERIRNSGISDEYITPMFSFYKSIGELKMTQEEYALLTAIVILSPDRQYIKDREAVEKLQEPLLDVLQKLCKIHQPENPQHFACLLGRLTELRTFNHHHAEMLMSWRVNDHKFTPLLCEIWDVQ

In the case of `CC[C@H]1[C@@H](O)[C@@H]2[C@H](CC[C@]3(C)[C@@H]([C@H](C)COC(=O)NS(=O)(=O)c4cccc(OC(C)(C)C)c4)CC[C@@H]23)[C@@]2(C)CC[C@@H](O)C[C@@H]12` [Example 29], the EC50 fell in the range of 100 to 1000 nM and the Emax amounted to 186%.

For the compound `CC[C@H]1[C@@H](O)[C@@H]2[C@H](CC[C@]3(C)[C@@H]([C@H](C)COC(=O)NS(=O)(=O)c4ccc(OC(C)(C)C)cc4)CC[C@@H]23)[C@@]2(C)CC[C@@H](O)C[C@@H]12` [Example 30], the EC50 was below 100 nM and the Emax was found to be 261%.

With `CC[C@H]1[C@@H](O)[C@@H]2[C@H](CC[C@]3(C)[C@@H]([C@H](C)COC(=O)NS(=O)(=O)c4ccc(Oc5ccccc5)cc4)CC[C@@H]23)[C@@]2(C)CC[C@@H](O)C[C@@H]12` [Example 31], the EC50 was 100 to 1000 nM and the Emax came out at 207%.

Consider `CC[C@H]1[C@@H](O)[C@@H]2[C@H](CC[C@]3(C)[C@@H]([C@H](C)COC(=O)NS(=O)(=O)c4ccc(-c5ccccc5)cc4)CC[C@@H]23)[C@@]2(C)CC[C@@H](O)C[C@@H]12` [Example 32], for which the EC50 is below 100 nM and the Emax was found to be 164%.

In the case of `CC[C@H]1[C@@H](O)[C@@H]2[C@H](CC[C@]3(C)[C@@H]([C@H](C)COC(=O)NS(=O)(=O)c4ccc(-c5ccc(OC(F)(F)F)cc5)cc4)CC[C@@H]23)[C@@]2(C)CC[C@@H](O)C[C@@H]12` [Example 33], the concentration giving a half-maximal response (EC50) was below 100 nM and the Emax came out at 266%.

For the compound `CC[C@H]1[C@@H](O)[C@@H]2[C@H](CC[C@]3(C)[C@@H]([C@H](C)COC(=O)NS(=O)(=O)c4ccc(-c5ccc(C(C)(C)C)cc5)cc4)CC[C@@H]23)[C@@]2(C)CC[C@@H](O)C[C@@H]12` [Example 34], the EC50 lay within 100 to 1000 nM and the Emax came out at 186%.

As to `CC[C@H]1[C@@H](O)[C@@H]2[C@H](CC[C@]3(C)[C@@H]([C@H](C)COC(=O)NS(=O)(=O)c4ccc(-c5ccncc5)cc4)CC[C@@H]23)[C@@]2(C)CC[C@@H](O)C[C@@H]12` [Example 35], the concentration giving a half-maximal response (EC50) was in the range of 100 to 1000 nM and the Emax is 152%.

Regarding `CC[C@H]1[C@@H](O)[C@@H]2[C@H](CC[C@]3(C)[C@@H]([C@H](C)COC(=O)NS(=O)(=O)c4ccc(-c5ncccn5)cc4)CC[C@@H]23)[C@@]2(C)CC[C@@H](O)C[C@@H]12` [Example 36], the half-maximal effective concentration (EC50) was below 100 nM and the Emax was 205%.

Consider `CC[C@H]1[C@@H](O)[C@@H]2[C@H](CC[C@]3(C)[C@@H]([C@H](C)COC(=O)NS(=O)(=O)c4ccc(-n5cccn5)cc4)CC[C@@H]23)[C@@]2(C)CC[C@@H](O)C[C@@H]12` [Example 37], for which the 50% effective concentration (EC50) was below 100 nM and the Emax was 207%.

With `CC[C@H]1[C@@H](O)[C@@H]2[C@H](CC[C@]3(C)[C@@H]([C@H](C)COC(=O)NS(=O)(=O)c4cccc(O)c4)CC[C@@H]23)[C@@]2(C)CC[C@@H](O)C[C@@H]12` [Example 38], the EC50 fell in the range of 100 to 1000 nM and the Emax stood at 203%.

In the case of `CC[C@H]1[C@@H](O)[C@@H]2[C@H](CC[C@]3(C)[C@@H]([C@H](C)COC(=O)NS(=O)(=O)c4ccc(O)cc4)CC[C@@H]23)[C@@]2(C)CC[C@@H](O)C[C@@H]12` [Example 39], the EC50 was in the range of 100 to 1000 nM and the Emax stood at 182%.

`CC[C@H]1[C@@H](O)[C@@H]2[C@H](CC[C@]3(C)[C@@H]([C@H](C)COC(=O)NS(=O)(=O)c4ccc(N5C6CCC5CC6)cc4)CC[C@@H]23)[C@@]2(C)CC[C@@H](O)C[C@@H]12` [Example 44-a]: the EC50 is below 100 nM and the Emax was found to be 182%.

In the case of `CC[C@H]1[C@@H](O)[C@@H]2[C@H](CC[C@]3(C)[C@@H]([C@H](C)COC(=O)NS(=O)(=O)c4ccc(N5CCCC5)nc4)CC[C@@H]23)[C@@]2(C)CC[C@@H](O)C[C@@H]12` [Example 44-b], the half-maximal effective concentration (EC50) is below 100 nM and the Emax is 216%.

Turning to `CC[C@H]1[C@@H](O)[C@@H]2[C@H](CC[C@]3(C)[C@@H]([C@H](C)COC(=O)NS(=O)(=O)c4ccc(N5CCC5)nc4)CC[C@@H]23)[C@@]2(C)CC[C@@H](O)C[C@@H]12` [Example 44-c], the concentration giving a half-maximal response (EC50) is below 100 nM and the Emax stood at 183%.

As to `CC[C@H]1[C@@H](O)[C@@H]2[C@H](CC[C@]3(C)[C@@H]([C@H](C)COC(=O)NS(=O)(=O)c4ccc(-n5cnnn5)nc4)CC[C@@H]23)[C@@]2(C)CC[C@@H](O)C[C@@H]12` [Example 44-d], the EC50 is 100 to 1000 nM and the Emax came to 195%.

On to `CC[C@H]1[C@@H](O)[C@@H]2[C@H](CC[C@]3(C)[C@@H]([C@H](C)COC(=O)NS(=O)(=O)c4ccc(-n5cnnn5)cc4)CC[C@@H]23)[C@@]2(C)CC[C@@H](O)C[C@@H]12` [Example 44-e], for which the concentration giving a half-maximal response (EC50) lay in the range of 100 to 1000 nM and the Emax amounted to 204%.

On to `CC[C@H]1[C@@H](O)[C@@H]2[C@H](CC[C@]3(C)[C@@H]([C@H](C)COC(=O)NS(=O)(=O)c4ccc(-n5cncn5)cc4)CC[C@@H]23)[C@@]2(C)CC[C@@H](O)C[C@@H]12` [Example 44-f], for which the EC50 was below 100 nM and the Emax was 216%.

In the case of `CC[C@H]1[C@@H](O)[C@@H]2[C@H](CC[C@]3(C)[C@@H]([C@H](C)COC(=O)NS(=O)(=O)c4ccc(-n5ccnn5)cc4)CC[C@@H]23)[C@@]2(C)CC[C@@H](O)C[C@@H]12` [Example 44-g], the EC50 was below 100 nM and the Emax came to 209%.

For `CC[C@H]1[C@@H](O)[C@@H]2[C@H](CC[C@]3(C)[C@@H]([C@H](C)COC(=O)NS(=O)(=O)c4ccc(-n5ccnc5)cc4)CC[C@@H]23)[C@@]2(C)CC[C@@H](O)C[C@@H]12` [Example 44-h], the EC50 was 100 to 1000 nM and the Emax stood at 194%.

`CC[C@H]1[C@@H](O)[C@@H]2[C@H](CC[C@]3(C)[C@@H]([C@H](C)COC(=O)NS(=O)(=O)c4cccc(-c5ncco5)c4)CC[C@@H]23)[C@@]2(C)CC[C@@H](O)C[C@@H]12` [Example 44-i]: the EC50 lay in the range of 100 to 1000 nM and the Emax came to 210%.

In the case of `CC[C@H]1[C@@H](O)[C@@H]2[C@H](CC[C@]3(C)[C@@H]([C@H](C)COC(=O)NS(=O)(=O)c4ccc(C(C)(C)C)s4)CC[C@@H]23)[C@@]2(C)CC[C@@H](O)C[C@@H]12` [Example 44-j], the 50% effective concentration (EC50) was below 100 nM and the Emax came to 170%.

On to `CC[C@H]1[C@@H](O)[C@@H]2[C@H](CC[C@]3(C)[C@@H]([C@H](C)COC(=O)NS(=O)(=O)c4ccc(OC)cc4)CC[C@@H]23)[C@@]2(C)CC[C@@H](O)C[C@@H]12` [Example 44-k], for which the EC50 was below 100 nM and the Emax was 158%.

In the case of `CC[C@H]1[C@@H](O)[C@@H]2[C@H](CC[C@]3(C)[C@@H]([C@H](C)COC(=O)NS(=O)(=O)c4ccc(-n5cncn5)nc4)CC[C@@H]23)[C@@]2(C)CC[C@@H](O)C[C@@H]12` [Example 44-l], the EC50 was in the range of 100 to 1000 nM and the Emax was 165%.

As to `CC[C@H]1[C@@H](O)[C@@H]2[C@H](CC[C@]3(C)[C@@H]([C@H](C)COC(=O)NS(=O)(=O)c4ccc(-n5ccnc5)nc4)CC[C@@H]23)[C@@]2(C)CC[C@@H](O)C[C@@H]12` [Example 44-m], the 50% effective concentration (EC50) was below 100 nM and the Emax came out at 206%.

In the case of `CC[C@H]1[C@@H](O)[C@@H]2[C@H](CC[C@]3(C)[C@@H]([C@H](C)COC(=O)NS(=O)(=O)c4ccc(-n5ccnn5)nc4)CC[C@@H]23)[C@@]2(C)CC[C@@H](O)C[C@@H]12` [Example 44-n], the concentration giving a half-maximal response (EC50) lay in the range of 100 to 1000 nM and the Emax was 307%.

Consider `CC[C@H]1[C@@H](O)[C@@H]2[C@H](CC[C@]3(C)[C@@H]([C@H](C)COC(=O)NS(=O)(=O)c4ccc(-c5ncco5)nc4)CC[C@@H]23)[C@@]2(C)CC[C@@H](O)C[C@@H]12` [Example 44-o], for which the EC50 fell in the range of 100 to 1000 nM and the Emax stood at 292%.
